How the values were obtained:
[1] = target: T1, rat histamine H3 receptor (Rattus norvegicus, UniProt Q9QYN8); experiment: Rat H3 radioligand binding ([3H]-N-alpha-methylhistamine, CHO-A3 cell membranes, SPA); settings: Table A, binding constant as letter class; read-out: Rat H3 Ki
T1 construct: encoding the entire 445-amino-acid rat histamine H3 receptor; expressed in transfected cells
Method: (§1) This was engineered into the pIRES-neo3 mammalian expression vector, which was stably transfected into the CHO-A3 cell line (Euroscreen, Belgium), followed by clonal selection by limiting dilution. Cells were harvested and cell pellets were frozen (−80° C.). Cell pellets were resuspended in 5 mM Tris-HCl, pH 7.5 with […] and a cocktail of protease inhibitors (Complete Protease Inhibition Tablets, Roche Diagnostics). Cells were disrupted using a polytron cell homogenizer and the suspension was centrifuged at 1000×g for 10 minutes at 4° C. The pellet was discarded and the supernatant centrifuged at 40,000×g for 30 min at 4° C. This membrane pellet was washed in membrane buffer containing 50 mM Tris-HCl, pH 7.5 with 0.6 mM EDTA, 5 mM MgCl2 and protease inhibitors, recentrifuged as above and the final pellet resuspended in membrane buffer plus 250 mM sucrose and frozen at −80° C.
(§2) Membranes were resuspended in 50 mM Tris HCl (pH 7.4), 5 mM MgCl2, 0.1% BSA. The membrane suspensions (10 μg protein per well) were incubated in a 96 well microtiter plate with [^3H]-N-alpha-methylhistamine (approximately 1 nM final concentration), test compounds at various concentrations (0.01 nM-30 μM) and scintillation proximity beads (Perkin Elmer, FlashBlueGPCR Scintillating Beads) in a final volume of 80 μl for 4 hours at room temperature, protected from light. Non-specific binding was determined in the presence of 10 μM clobenpropit. Radioligand bound to receptor, and therefore in proximity to the scintillation beads, was measured using a MicroBeta scintillation counter.

[2] = target: T2, human H3 receptor (Homo sapiens, UniProt Q9Y5N1); experiment: Human H3 radioligand binding ([3H]-N-alpha-methylhistamine, CHO cell membranes, SPA); settings: Table A, binding constant as letter class
T2 construct: expressed in transfected cells
T2 sequence (Q9Y5N1 whole entry): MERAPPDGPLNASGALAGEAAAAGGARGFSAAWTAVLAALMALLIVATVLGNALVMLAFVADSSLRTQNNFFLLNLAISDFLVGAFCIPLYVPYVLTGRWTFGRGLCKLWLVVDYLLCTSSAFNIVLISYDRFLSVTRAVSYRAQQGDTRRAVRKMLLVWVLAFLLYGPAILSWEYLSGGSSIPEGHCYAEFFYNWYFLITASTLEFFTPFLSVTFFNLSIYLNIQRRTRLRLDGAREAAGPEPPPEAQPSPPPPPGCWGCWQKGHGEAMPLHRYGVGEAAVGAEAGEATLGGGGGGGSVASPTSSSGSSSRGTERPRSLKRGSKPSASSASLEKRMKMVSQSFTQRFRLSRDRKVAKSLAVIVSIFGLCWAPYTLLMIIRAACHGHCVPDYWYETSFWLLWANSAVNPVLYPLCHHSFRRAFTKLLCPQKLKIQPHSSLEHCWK
Method: as §1, with “Cell” for “This was engineered into the pIRES-neo3 mammalian expression vector, which was stably transfected into the CHO-A3 cell line (Euroscreen, Belgium), followed by clonal selection by limiting dilution. Cells were harvested and cell pellets were frozen (−80° C.). Cell”
as §2

T1 sequence (Q9QYN8 whole entry): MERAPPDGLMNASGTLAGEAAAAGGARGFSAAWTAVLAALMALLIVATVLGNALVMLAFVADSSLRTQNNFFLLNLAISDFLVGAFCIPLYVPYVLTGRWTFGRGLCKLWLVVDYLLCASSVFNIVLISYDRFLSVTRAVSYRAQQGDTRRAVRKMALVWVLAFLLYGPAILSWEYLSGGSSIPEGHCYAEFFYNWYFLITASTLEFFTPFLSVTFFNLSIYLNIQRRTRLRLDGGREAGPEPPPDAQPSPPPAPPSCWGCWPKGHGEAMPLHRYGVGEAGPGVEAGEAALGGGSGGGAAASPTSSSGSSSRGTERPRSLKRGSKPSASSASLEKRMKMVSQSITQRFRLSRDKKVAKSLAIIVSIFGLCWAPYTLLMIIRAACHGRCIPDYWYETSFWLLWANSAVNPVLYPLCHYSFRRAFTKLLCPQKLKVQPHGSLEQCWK

| Ki [1] [µM] | Ki [2] [µM] | SMILES |
| --- | --- | --- |
| 0.101 to 0.5 | 0.0001 to 0.1 | Cn1nc(-c2ccc(OCCCN3CCCCC3)cc2)ccc1=O [Example 2, 2-Methyl-6-[4-(3-piperidin-1-yl-propoxy)-phenyl]-2H-pyridazin-3-one] |
| 0.0001 to 0.1 | 0.0001 to 0.1 | CC(C)n1nc(-c2ccc(OCCCN3CCCCC3)cc2)ccc1=O [Example 3, 2-Isopropy1-6-[4-(3-piperidin-1-yl-propoxy)-pheny1]-2H-pyridazin-3-one] |
| 0.0001 to 0.1 | 0.0001 to 0.1 | CC(C)N1N=C(c2ccc(OCCCN3CCCCC3)cc2)CCC1=O [Example 4, 2-Isopropy1-6-[4-(3-piperidin-1-yl-propoxy)-phenyl]-4,5-dihydro-2H-pyridazin-3-one] |
| 0.0001 to 0.1 | 0.0001 to 0.1 | CC(C)n1nc(-c2ccc(OCCCN3CCC[C@H]3C)cc2)ccc1=O [Example 5, 2-Isopropyl-6-{4-[3-((R)-2-methyl-pyrrolidin-1-yl)-propoxy]-phenyl}-2H-pyridazin-3-one] |
| 0.0001 to 0.1 | 0.0001 to 0.1 | CCn1nc(-c2ccc(OCCCN3CCC[C@H]3C)cc2)ccc1=O [Example 6, 2-Ethyl-6-{4-[3-((R)-2-methyl-pyrrolidin-1-yl)-propoxy]-phenyl}-2H-pyridazin-3-one] |
| 0.0001 to 0.1 | 0.0001 to 0.1 | C[C@@H]1CCCN1CCCOc1ccc(-c2ccc(=O)n(C)n2)cc1F [Example 7, 6-{3-Fluoro-4-[3-((R)-2-methyl-pyrrolidin-1-yl)-propoxy]-phenyl}-2-methyl-2H-pyridazin-3-one] |
| 0.0001 to 0.1 | 0.0001 to 0.1 | C[C@@H]1CCCN1CCCOc1ccc(C2=NN(Cc3ccc(Cl)cc3Cl)C(=O)CC2)cc1 [Example 8, 2-(2,4-Dichloro-benzyl)-6-{4-[3-((R)-2-methyl-pyrrolidin-1-yl)-propoxy]-phenyl}-4,5-dihydro-2H-pyridazin-3-one] |
| 0.0001 to 0.1 | 0.0001 to 0.1 | C[C@@H]1CCCN1CCCOc1ccc(-c2ccc(=O)n(-c3cc(Cl)cc(Cl)c3)n2)cc1 [Example 9, 2-(3,5-Dichloro-phenyl)-6-{4-[3-((R)-2-methyl-pyrrolidin-1-yl)-propoxy]-phenyl}-2H-pyridazin-3-one] |
| 0.101 to 0.5 | 0.0001 to 0.1 | O=c1ccc(-c2ccc(OCCCN3CCCCC3)c(F)c2)nn1-c1ccccc1 [Example 10, 6-[3-Fluoro-4-(3-piperidin-1-yl-propoxy)-phenyl]-2-phenyl-2H-pyridazin-3-one] |
| 0.0001 to 0.1 | 0.0001 to 0.1 | C[C@@H]1CCCN1CCCOc1ccc(-c2ccc(=O)[nH]n2)cc1 [Example 11, 6-{4-[3-((R)-2-Methyl-pyrrolidin-1-yl)-propoxy]-phenyl}-2H-pyridazin-3-one] |
| 0.0001 to 0.1 | 0.0001 to 0.1 | C[C@@H]1CCCN1CCCOc1ccc(-c2n[nH]c(=O)c3c2CCC3)cc1 [Example 12, 4-{4-[3-((R)-2-Methyl-pyrrolidin-1-yl)-propoxy]-phenyl}-2,5,6,7-tetrahydro-cyclopenta[d]pyridazin-1-one] |
| 0.0001 to 0.1 | 0.0001 to 0.1 | C[C@H](COc1ccc(-c2ccc(=O)n(C)n2)cc1)CN1CCC[C@H]1C [Example 13, 2-Methyl-6-{4-[(S)-2-methyl-3-((R)-2-methyl-pyrrolidin-1-yl)-propoxy]-phenyl}-2H-pyridazin-3-one] |
| 0.0001 to 0.1 | 0.0001 to 0.1 | C[C@@H]1CCCN1CCCOc1ccc(C2=NN(C)C(=O)CC2)cc1 [Example 16, 2-Methyl-6-{4-[3-((R)-2-methyl-pyrrolidin-1-yl)-propoxy]-phenyl}-4,5-dihydro-2H-pyridazin-3-one] |
| 0.0001 to 0.1 | 0.0001 to 0.1 | C[C@@H]1CCCN1CCCOc1ccc(C2=NN(Cc3ccccc3)C(=O)CC2)cc1 [Example 17, 2-Benzyl-6-{4-[3-((R)-2-methyl-pyrrolidin-1-yl)-propoxy]-phenyl}-4,5-dihydro-2H-pyridazin-3-one] |
| 0.0001 to 0.1 | 0.0001 to 0.1 | C[C@@H]1CCCN1CCCOc1ccc(-c2ccc(=O)n(Cc3ccccc3)n2)cc1 [Example 18, 2-Benzyl-6-{4-[3-((R)-2-methyl-pyrrolidin-1-yl)-propoxy]-phenyl}-2H-pyridazin-3-one] |
